Measurements: patent US20110245242A1, “Heterocyclically Substituted Anilinopyrimides” (Bayer CropScience AG, priority 2008, published 2011)

Assay: log P by LC-MS, method [b], acid range pH 2.7
Format: physicochemical
Conditions: pH 2.7
Experimental: The log P values were measured in accordance with EEC Directive 79/831 Annex V.A8 by HPLC (High Performance Liquid Chromatography) on reversed-phase columns (C 18) using the methods below:
[b] The LC-MS determination in the acid range was carried out at pH 2.7 using the mobile phases 0.1% aqueous formic acid and acetonitrile (contains 0.1% formic acid)
linear gradient from 10% acetonitrile to 95% acetonitrile.

log p | Compound
2.07[b] | CC1(C)CN(c2cccc(Nc3ncc(Cl)c(NC4CC4)n3)c2)C1=O [Example 53]
1.49[b] | CC(C)Nc1nc(Nc2ccc(N3CCOC3=O)cc2)ncc1Cl [Example 64]
1.54[b] | COCC(C)Nc1nc(Nc2cccc(N3CCOC3=O)c2)ncc1Cl (centres unmarked) [Example 67]
1.61[b] | COCC(C)Nc1nc(Nc2cccc(N3CCOC3=O)c2)ncc1Br (centres unmarked) [Example 69]
1.8[b] | O=C1OCCN1c1cccc(Nc2ncc(Br)c(NC3CCC3)n2)c1 [Example 72]
1.78[b] | CC1CC(=O)N(c2cccc(Nc3ncc(Br)c(NCC4CC4)n3)c2)C1=O (centres unmarked) [Example 74]
1.63[b] | CN(c1cccc(N2CCCC2=O)c1)c1ncc(Cl)c(NC2CCC2)n1 [Example 83]
2.27[b] | O=C1OCC(c2ccccc2)N1c1cccc(Nc2ncc(Cl)c(NC3CC3)n2)c1 (centres unmarked) [Example 88]
2.65[b] | O=C1OCC(c2ccccc2)N1c1cccc(Nc2ncc(Cl)c(NC3CCC3)n2)c1 (centres unmarked) [Example 89]
2.8[b] | O=C1OCC(c2ccccc2)N1c1cccc(Nc2ncc(Br)c(NC3CCC3)n2)c1 (centres unmarked) [Example 90]
2.3[b] | O=C1OCC(c2ccccc2)N1c1cccc(Nc2ncc(Br)c(NC3CC3)n2)c1 (centres unmarked) [Example 91]
2.38[b] | CC(C)[C@H]1COC(=O)N1c1cccc(Nc2ncc(Cl)c(NC3CCC3)n2)c1 [Example 100]
2.38[b] | CC(C)[C@@H]1COC(=O)N1c1cccc(Nc2ncc(Cl)c(NC3CCC3)n2)c1 [Example 101]
2.03[b] | C[C@@H]1COC(=O)N1c1cccc(Nc2ncc(Br)c(NC3CC3)n2)c1 [Example 104]
1.6[b] | Cc1ccc(Nc2ncc(Cl)c(NC3CCC3)n2)cc1N1CCOC1=O [Example 105]
2.17[b] | CC(C)[C@H]1COC(=O)N1c1cccc(Nc2ncc(Cl)c(NCC3CC3)n2)c1 [Example 109]
2.1[b] | CC(C)Nc1nc(Nc2cccc(N3C(=O)OC[C@@H]3C(C)C)c2)ncc1Cl [Example 110]
2.81[b] | CC(C)[C@H]1COC(=O)N1c1cccc(Nc2ncc(Cl)c(NCC(F)(F)F)n2)c1 [Example 111]
1.46[b] | CC(C)Nc1nc(Nc2cccc(N3CCCCC3=O)c2)ncc1Cl [Example 114]
1.64[b] | CC1COC(=O)N1c1cccc(Nc2ncc(Cl)c(NCC3CC3)n2)c1 (centres unmarked) [Example 116]
2.1[b] | COCC(C)Nc1nc(Nc2cccc(N3C(=O)OC[C@@H]3C(C)C)c2)ncc1Cl (some centres unmarked) [Example 117]
2.28[b] | CC(C)C1COC(=O)N1c1cccc(Nc2ncc(Br)c(NCC3CC3)n2)c1 (centres unmarked) [Example 128]
2.24[b] | CC(C)Nc1nc(Nc2cccc(N3C(=O)OCC3C(C)C)c2)ncc1Br (centres unmarked) [Example 129]
2.5[b] | CC(C)C1COC(=O)N1c1cccc(Nc2ncc(Br)c(NCC(F)F)n2)c1 (centres unmarked) [Example 130]
2.02[b] | CC1(C)CC(=O)N(c2cccc(Nc3ncc(Br)c(NCC4CC4)n3)c2)C1=O [Example 132]
1.77[b] | CC1CCC(=O)N1c1cccc(Nc2ncc(Br)c(NCC3CC3)n2)c1 (centres unmarked) [Example 133]
1.57[b] | CC(C)Nc1nc(Nc2cccc(N3CCCCC3=O)c2)ncc1Br [Example 134]
1.75[b] | O=C1CCCCN1c1cccc(Nc2ncc(Br)c(NCC(F)F)n2)c1 [Example 135]
1.61[b] | CC(C)Nc1nc(Nc2ccc(N3C(=O)OCC3C)cc2)ncc1Cl (centres unmarked) [Example 142]
1.41[b] | CC(C)Nc1nc(Nc2cccc(N3CCOCC3=O)c2)ncc1Cl [Example 143]

Further lines, the compound ahead of its results:

Compound | log p
COCC(C)Nc1nc(Nc2ccc(N3C(=O)OCC3C)cc2)ncc1Cl (centres unmarked) [Example 3] | 1.54[b]
COCC(C)Nc1nc(Nc2ccc(N3C(=O)OCC3C)cc2)ncc1Br (centres unmarked) [Example 4] | 1.61[b]
COCC(C)Nc1nc(Nc2cccc(N3CCCC3=O)c2)ncc1Br (centres unmarked) [Example 5] | 1.6[b]
COCC(C)Nc1nc(Nc2ccc(N3CCOC3=O)cc2)ncc1Cl (centres unmarked) [Example 12] | 1.46[b]
O=c1ccccn1-c1cccc(Nc2ncc(Cl)c(NC3CCC3)n2)c1 [Example 16] | 2.17[b]
O=C1OCCN1c1ccc(Nc2ncc(Cl)c(NCC(F)(F)F)n2)cc1 [Example 23] | 1.83[b]
COCC(C)Nc1nc(Nc2cccc(N3CCCC3=O)c2)ncc1C#N (centres unmarked) [Example 24] | 1.99[b]
CC1(C)CC(=O)N(c2cccc(Nc3ncc(Cl)c(NC4CCC4)n3)c2)C1=O [Example 29] | 2.07[b]
CCC1COC(=O)N1c1cccc(Nc2ncc(Br)c(NC3CCC3)n2)c1 (centres unmarked) [Example 34] | 2.24[b]
CCC1COC(=O)N1c1cccc(Nc2ncc(Cl)c(NC3CCC3)n2)c1 (centres unmarked) [Example 35] | 2.09[b]
CC1CCC(=O)N1c1cccc(Nc2ncc(Cl)c(NC3CCC3)n2)c1 (centres unmarked) [Example 37] | 1.83[b]
O=C1CCCN1c1cccc(Nc2ncc(Cl)c(NC3CCCC3)n2)c1 [Example 42] | 1.92[b]
CC1(C)CN(c2cccc(Nc3ncc(Br)c(NC4CC4)n3)c2)C1=O [Example 52] | 2.18[b]
CC1CC(=O)N(c2cccc(Nc3ncc(Br)c(NC4CC4)n3)c2)C1=O (centres unmarked) [Example 66] | 1.78[b]
COCC(C)Nc1nc(Nc2cccc(N3C(=O)CC(C)C3=O)c2)ncc1Cl (centres unmarked) [Example 68] | 1.59[b]
COCC(C)Nc1nc(Nc2cccc(N3C(=O)CC(C)C3=O)c2)ncc1Br (centres unmarked) [Example 70] | 1.68[b]

Compound | log p
CC1CC(=O)N(c2cccc(Nc3ncc(Cl)c(NCC4CC4)n3)c2)C1=O (centres unmarked) [Example 71] | 1.68[b]
CC(C)[C@@H]1COC(=O)N1c1cccc(Nc2ncc(Cl)c(NC3CC3)n2)c1 [Example 75] | 2.39[b]
CC1CC(C)N(c2cccc(Nc3ncc(Cl)c(NC4CCC4)n3)c2)C1=O (centres unmarked) [Example 80] | 2.2[b]
CC1CC(C)N(c2cccc(Nc3ncc(Br)c(NC4CCC4)n3)c2)C1=O (centres unmarked) [Example 85] | 2.3[b]
C[C@H]1COC(=O)N1c1cccc(Nc2ncc(Cl)c(NC3CCC3)n2)c1 [Example 93] | 1.82[b]
C[C@H]1COC(=O)N1c1cccc(Nc2ncc(Br)c(NC3CC3)n2)c1 [Example 95] | 1.65[b]
CC1CC(=O)N(c2cccc(Nc3ncc(Cl)c(NC4CC4)n3)c2)C1 (centres unmarked) [Example 96] | 1.75[b]
CC1CC(=O)N(c2cccc(Nc3ncc(Cl)c(NC4CCC4)n3)c2)C1 (centres unmarked) [Example 97] | 2.02[b]
CC1CC(=O)N(c2cccc(Nc3ncc(Br)c(NC4CCC4)n3)c2)C1 (centres unmarked) [Example 98] | 2.16[b]
CC(C)[C@H]1COC(=O)N1c1cccc(Nc2ncc(Cl)c(NCC(F)F)n2)c1 [Example 112] | 2.39[b]
CC1CCN(c2cccc(Nc3ncc(Cl)c(NC4CCC4)n3)c2)C1=O (centres unmarked) [Example 113] | 2.01[b]
CC(C)Nc1nc(Nc2cccc(N3C(=O)CCC3C)c2)ncc1Cl (centres unmarked) [Example 144] | 1.66[b]
CC(C)Nc1nc(Nc2cccc(N3C(=O)CC(C)C3=O)c2)ncc1Cl (centres unmarked) [Example 145] | 1.59[b]
CC(C)Nc1nc(Nc2cccc(N3C(=O)OCC3C)c2)ncc1Br (centres unmarked) [Example 147] | 1.73[b]
CC(C)Nc1nc(Nc2cccc(N3C(=O)CC(C)(C)C3=O)c2)ncc1Br [Example 148] | 1.93[b]
CC(C)Nc1nc(Nc2cccc(N3C(=O)C(C)CC3C)c2)ncc1Br (centres unmarked) [Example 149] | 1.98[b]
